The values below come from article PMC7303324, “Conventional Pig as Animal Model for Human Renal Drug Excretion Processes: Unravelling the Porcine Renal Function by Use of a Cocktail of Exogenous Markers” (Frontiers in Pharmacology, 2020).

The conditions of data set [1]: healthy human adults, ref Gross et al. (2001), cited from earlier work; for Net tubular reabsorption (CLREA): fluconazole given orally; for Net tubular secretion (CLSECR): pindolol given orally.
Data set [2] relates to plasma proteins. The arrangement: method as in Humphrey et al., 1985. The conditions noted are these: other species like humans, dogs, rats, and mice; ref Humphrey et al., 1985; cited from earlier work.
Data set [3] is described as follows: Pharmacokinetics and renal clearance of a renal marker cocktail after IV bolus in 7-week-old male pigs. The conditions noted are these: for CL renal: plasma and urine.
Excerpt: (§1) Eight healthy, stress resistant, 6-week-old male piglets (Landrace × Large White × Maximus, Seghers Hybrid®, Wuustwezel, Belgium) were recruited for this study. Upon arrival piglets were group-housed in standard pig stables (2.30 × 2.40 m) with ad libitum access to water and feed (Piggistart Opti®, Aveve, Leuven, Belgium). During the whole experimental period, stables were enriched with rubber toys, balls of different size, and cotton towels. After a 5-day acclimatization period, a double-lumen jugular catheter was inserted following the procedure described by Gasthuys et al., permitting accurate intravenous (IV) administration of the renal markers and blood collection ([Gasthuys et al., 2017b]). During anesthesia, a human stoma ring (Esteem synergy® Uro, 48 mm, ConvaTec, Belgium) was attached around the prepuce of the piglets to allow urine collection ([Gasthuys et al., 2017b]). After surgery, the pigs were housed individually to avoid displacements of the catheters and stoma rings. Catheters were flushed at least twice daily with heparinized 0.9% NaCl (50 IU/ml), and the bandages were changed daily.
(§2) After a one day recovery period, urine pouches were attached to the stoma ring just before administration of the drugs. […] Blood was sampled via the other lumen of the catheter at 0, 5, 15, 30, 45, and 60 min, and 2, 4, 6, 8, 12, 24, 36, 48, and 72 h post administration and collected into K3EDTA collection tubes (Vacutest®, Piove die Sacco, Kima, Italy). The samples were kept on ice and centrifuged (2,095 × g, 10 min, 4°C) within 2 h. Multiple timed urine collections were performed over a 48 h time period. The total volume of urine voided in each time period was registered. Aliquots of plasma were stored at ≤−80°C until analysis. Urine samples were initially stored at −20°C for 6 weeks, but were subsequently stored at −80°C for further storage.
(§3) Total plasma iohexol and PAH concentrations were quantified simultaneously using a validated ultrahigh performance liquid chromatography tandem mass spectrometry (UHPLC-MS/MS) method as previously described by [Dhondt et al. (2019)] […] The same UHPLC method was used for analysis of PAH in urine samples with slight modifications. The LLOQ was 0.25 µg/ml.
(§4) Pharmacokinetic modeling of the plasma concentration–time data was performed using Phoenix® 8.1 (Certara, Cary, NC, USA). Values below the LOQ were excluded from the dataset. […] A multiplicative error model was used. […] The estimated primary parameters were volume of distribution (Vd) and total body clearance (CLTOT). Also the following secondary parameters were calculated: elimination half-life (T1/2el), elimination rate constant (Ke), volume of distribution at steady state (Vss), and the area under the curve from time 0 h to infinity (AUC0→inf).
(§5) The cumulative amount of unchanged compound recovered in the urine (Ae) was calculated taking the sum of the amount excreted at every collection point. This amount was calculated by multiplying the observed concentration by the volume collected at every collection point.
(§6) where AUC0→inf is the area under the plasma concentration–time curve extrapolated to infinity. […] The AUC0→48h was calculated by noncompartmental analysis (NCA) using the linear up-log down trapezoidal method. The nonrenal clearance (CLNR) was obtained by subtracting the CLR from CLTOT. The CLTOT of iohexol is a measure for the GFR. The CLR of PAH is used to estimate the ERPF. The filtration fraction (FF) was calculated by
The conditions of data set [4]: pig, in vivo, iv.
Excerpt: as §1, §2, §3, §4, §5, §6
Details of data set [5]: method as in Gasthuys et al., 2017a. Particulars: pigs of 7 weeks of age; ref Gasthuys et al., 2017a; cited from earlier work.
For data set [6] the following is noted: humans, cited from earlier work.
Another data set relates to porcine kidney. Set-up: method as in Gyrd-Hansen and Rasmussen (1970). The conditions noted are these: in vivo, pigs; ref Gyrd-Hansen and Rasmussen (1970); cited from earlier work.
In data set [7] the test system is plasma proteins. Nature of the data set: In vitro plasma protein binding by ultrafiltration in spiked pig plasma. Format: in vitro ADME. Particulars: 39°C, fluconazole corrected for NSB. On the procedure: Three aliquots of each concentration level were analyzed the same way as the pharmacokinetic (PK) study samples as described above to determine the total plasma concentration. Three other aliquots of each concentration were incubated for 1 h in a hot water bath of 39°C to replicate the pig's core body temperature and subsequently transferred onto an ultrafiltration device. […] Thereafter, the obtained filtrate was analyzed in the same way as the PK study samples to determine the unbound plasma concentration. The following equation was used to determine the unbound fraction in plasma: […]
The duration of centrifugation was reduced to 2.5 and 1.0 min for Microcon® and Amicon® filters, respectively.
Cunbound,corrected=Cunbound,measured/1-NSB

The test system of the next data set is GFR. The conditions noted are these: hypertensive patients, ref Wainer et al., 1980, cited from earlier work.
Details of data set [8]: method as in Friedli et al., 1986. Particulars: pigs with induced myocardial infarction, IV 0.05 mg/kg; ref Friedli et al., 1986; cited from earlier work.
For data set [9], the system named is plasma proteins. The arrangement: method as in Hsyu and Giacomini, 1985. The conditions noted are these: humans; ref Hsyu and Giacomini, 1985; cited from earlier work.
The test system of the next data set is ERPF and GFR. Set-up: method as in Epstein et al., 1985. The conditions noted are these: dogs, IV administration; ref Epstein et al., 1985; cited from earlier work.
The conditions of data set [10]: humans; ref Schwarz, 1982; cited from earlier work.
[11] abbreviates: corrected for estimated mean BSA.
Setting [12] is: male, Landrace × Large White × Maximus (Seghers Hybrid), pig, plasma, iv.
Setting [13] is: male, Landrace × Large White × Maximus (Seghers Hybrid), pig, plasma, iv, 0.5 mg/kg.
Setting [14] is: 7-week-old male pigs, indexed to BSA, mean ± SD.

Where “and” joins values, the source holds several entries; their conditions need not be identical. Identical values can stand only once. Like-named read-outs stand apart in the source and are kept apart here.

As a reminder, the half-life is the time needed for the level to fall by half in the phase considered. A high value points to slow loss. With `OC(Cn1cncn1)(Cn1cncn1)c1ccc(F)cc1F` [Fluconazole, fluconazole], the “Net tubular reabsorption (CLREA)” value was 49.21 ± 15.34 ml/min/m² in [1] (setting [11]) and 1.29 ± 0.40 mL/min/kg in data set [1] (corrected for mean BW 72 kg). In the data set with plasma proteins [2], the Plasma protein binding is ~ 12%. Further, the CL renal in data set [3] (male, Landrace × Large White × Maximus (Seghers Hybrid), pig, iv, 0.5 mg/kg, CLR, IV bolus, 7-week-old male pigs, n = 6, Ae/AUC0→inf (fluconazole: Ae 48 h/AUC0→48h), mean ± SD) was 0.32 ± 0.05 mL/min/kg; in data set [3] (male, Landrace × Large White × Maximus (Seghers Hybrid), pig, iv, 0.5 mg/kg, Renal clearance calculated over a time period of 24 h, pigs, IV 0.5 mg/kg, data up to 24 h), 0.33 ± 0.06 mL/min/kg; in data set [3] (male, Landrace × Large White × Maximus (Seghers Hybrid), pig, iv, 0.5 mg/kg, Renal clearance estimated over 48 h, pigs, IV 0.5 mg/kg, data up to 48 h), 0.32 ± 0.05 mL/min/kg. Moreover, the clearance was 0.45 ± 0.049 mL/min/kg in data set [3] (setting [12]) and 0.45 ± 0.05 mL/min/kg in data set [3] (setting [13]). The compound also came in with a Vd in data set [3] (setting [13]) of 0.98 ± 0.04 L/kg. In data set [3] (setting [13]), the half-life is 25.7 ± 2.75 h. In data set [3] (setting [13]), this compound showed a k el of 8.33e-06 s⁻¹. The compound also displayed a CLNR in [4] (male, Landrace × Large White × Maximus (Seghers Hybrid)) of 0.13 ± 0.039 mL/min/kg.
With `CC(=O)N(CC(O)CO)c1c(I)c(C(=O)NCC(O)CO)c(I)c(C(=O)NCC(O)CO)c1I` (centres unmarked) [Iohexol, iohexol], the Iohexol clearance in [5] was 100.92 ± 20.84 ml/min/m². Besides, the “GFR = CLTOT IOH” value in data set [3] (setting [14]) was 97.87 ± 16.05 ml/min/m². Also, the clearance in [3] (male, Landrace × Large White × Maximus (Seghers Hybrid), pig, plasma, intravenous, 64.7 mg/kg BW) was 4.12 ± 0.54 mL/min/kg; in data set [3] (setting [12]), 4.12 ± 0.54 mL/min/kg.
In the case of `Nc1ccc(C(=O)NCC(=O)O)cc1` [PAH, para-aminohippuric acid], the “Nonrenal clearance as share of total drug elimination” value in data set [6] (ref Prescott et al., 1993) is listed as 15 to 30%. Moreover, the “Plasma concentration at which saturation of the transport system is observed” value in [6] (ref Tett et al., 2003) is 300 to 600 µg/mL. Further, the “ERPF = CLR PAH” value is 247.09 ml/min/m² and 247.09 ± 77.25 ml/min/m² in data set [1] (setting [11]); 6.48 ± 2.02 mL/min/kg in [1] (corrected for mean BW 72 kg); 226.77 ml/min/m² and 226.77 ± 62.45 ml/min/m² in data set [3] (setting [14]); 9.51 ± 2.44 mL/min/kg in data set [3] (7-week-old male pigs, indexed to BW, mean ± SD). In addition, the “Net tubular secretion (CLSECR)” value in data set [1] (setting [11]) is 189.95 ml/min/m² and 189.95 ± 70.90 ml/min/m²; in [1] (corrected for mean BW 72 kg), 4.99 mL/min/kg and 4.99 ± 1.86 mL/min/kg. The compound also registered a Urinary recovery in data set [3] (IV bolus, 7-week-old male pigs, fraction of dose recovered unchanged in urine, n = 6) of 30.09 ± 5.06%. Further, the CLNR in [3] (IV bolus, 7-week-old male pigs, n = 6, CLTOT minus CLR, mean ± SD) was 22.02 mL/min/kg and 22.02 ± 3.76 mL/min/kg. Further, the “Ae, cumulative amount of unchanged compound recovered in the urine” value in data set [3] (IV bolus, 7-week-old male pigs, urine collected over 48 h, n = 6, mean ± SD) is recorded as 29,512 ± 5751 µg. Moreover, the CLTOT in [3] (Table 1, IV bolus, 7-week-old male pigs, iohexol n = 8, others n = 6, mean ± SD) was 31.53 ± 5.38 mL/min/kg. Moreover, the “Contribution of nonrenal elimination to total clearance” value in [3] (pigs) is “approximately 70%”. Moreover, the “PAH plasma concentrations reached” value in data set [3] (pigs, IV bolus 10 mg/kg BW) is reported as “below 30 µg/ml”. The “Amount of PAH acetylated by the porcine kidney, mean” value in the data set with porcine kidney is on record as −0.1%. For the same compound, the “Fu, free, non-protein bound, fraction” value in the data set with plasma proteins [7] is 1.0. Moreover, in data set [4], the CLR turned out to be 9.51 ± 2.44 mL/min/kg.
As to `CC(C)NC[C@@H](O)COc1cccc2[nH]ccc12` [R-pindolol], the “Fu, free, non-protein bound, fraction” value in the data set on plasma proteins [7] is on record as 0.19 ± 0.03^3.
With `CC(C)NC[C@H](O)COc1cccc2[nH]ccc12` [S-pindolol], the “Fu, free, non-protein bound, fraction” value in the data set with plasma proteins [7] was 0.62 ± 0.00^3.
As to `CC(C)NCC(O)COc1cccc2[nH]ccc12` (centres unmarked) [pindolol], in the data set with GFR (IV administration), the “Decrease in GFR against baseline, average” value is 4.37% and the “Decrease in GFR against baseline, range” value is 0.96−9.43%. For the same compound, the “Effect on GFR against baseline” value in the data set with GFR (oral administration) is given as “no significant effect”. For the same compound, the Hemodynamical changes entry in data set [8] was “did not induce any hemodynamical changes”. Further, the fu in the data set with plasma proteins [9] is 0.45. Also, the “Effect on ERPF and GFR” value in the data set with ERPF and GFR is “slight but insignificant decrements in ERPF and GFR”. The “Urinary excretion of unchanged pindolol” value in data set [10] is given as 35%.
Take sinistrin: the “GFR (renal clearance of sinistrin)” value is 68.78 ± 21.16^2 ml/min/m² in [1] (setting [11]) and 1.81 ± 0.56^2 ml/min/kg in data set [1] (corrected for mean BW 72 kg).
